Source: the supplement of paper PMC10307832

Assays:
Experiment in all cases: relative viability (nuclei count vs DMSO), 5 days (fraction); higher = more cells survive
MLN4924 + Navitoclax = compound: NS(=O)(=O)OC[C@@H]1C[C@@H](n2ccc3c(N[C@H]4CCc5ccccc54)ncnc32)C[C@@H]1O [MLN4924] + CC1(C)CCC(c2ccc(Cl)cc2)=C(CN2CCN(c3ccc(C(=O)NS(=O)(=O)c4ccc(N[C@H](CCN5CCOCC5)CSc5ccccc5)c(S(=O)(=O)C(F)(F)F)c4)cc3)CC2)C1 [Navitoclax] (partner 0.5 µM)
Procedure, shortened: (§1)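 Nuclei were stained with Hoechst during a one-step fixation (final 0.05% Triton X-100, 1% formaldehyde, 1 ug/ml Hoechst) carried out 5 days after dosing, then counted on 4× images. The cells, lung cancer lines in 1536-well plates, had been dosed by pin tool the day after seeding with one drug alone or a fixed anchor-drug dose plus five library-drug doses (not always all listed) in √10 steps. Relative viability is the nuclei count in treated wells divided by that in vehicle wells, and each value is the median of duplicate plates.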

GSK126 + Tozasertib = compound: CC[C@H](C)N1C=C(C2=C(C=C(C=C21)C3=CN=C(C=C3)N4CCNCC4)C(=O)NCC5=C(C=C(NC5=O)C)C)C [GSK126] + Cc1cc(Nc2cc(N3CCN(C)CC3)nc(Sc3ccc(NC(=O)C4CC4)cc3)n2)n[nH]1 [Tozasertib] (partner 0.1 µM)
Procedure, shortened: as §1

[1] = compound: C1CC(C1)(C(=O)O)C(=O)O.[NH2-].[NH2-].[Pt+2] [Carboplatin] + CC(=O)c1c(C)c2cnc(Nc3ccc(N4CCNCC4)cn3)nc2n(C2CCCC2)c1=O [Palbociclib] (partner 0.5 µM)
Procedure, shortened: as §1

MLN4924 + AZD7762 = compound: NS(=O)(=O)OC[C@@H]1C[C@@H](n2ccc3c(N[C@H]4CCc5ccccc54)ncnc32)C[C@@H]1O [MLN4924] + NC(=O)Nc1cc(-c2cccc(F)c2)sc1C(=O)N[C@H]1CCCNC1 [AZD7762] (partner 0.2 µM)
Procedure, shortened: as §1

Row | Cell Line | relative viability (MLN4924 + Navitoclax; first compound 0.04 µM) | relative viability (MLN4924 + Navitoclax; first compound 0.1265 µM) | relative viability (MLN4924 + Navitoclax; first compound 0.4 µM) | relative viability (MLN4924 + Navitoclax; first compound 1.265 µM) | relative viability (MLN4924 + Navitoclax; first compound 4 µM) | relative viability (GSK126 + Tozasertib; first compound 0.08 µM) | relative viability (GSK126 + Tozasertib; first compound 0.253 µM) | relative viability (GSK126 + Tozasertib; first compound 0.8 µM) | relative viability (GSK126 + Tozasertib; first compound 2.53 µM) | relative viability (GSK126 + Tozasertib; first compound 8 µM) | relative viability ([1]; first compound 0.08 µM) | relative viability ([1]; first compound 0.253 µM) | relative viability ([1]; first compound 0.8 µM) | relative viability ([1]; first compound 2.53 µM) | relative viability ([1]; first compound 8 µM) | relative viability (MLN4924 + AZD7762; first compound 0.04 µM) | relative viability (MLN4924 + AZD7762; first compound 0.1265 µM) | relative viability (MLN4924 + AZD7762; first compound 0.4 µM) | relative viability (MLN4924 + AZD7762; first compound 1.265 µM) | relative viability (MLN4924 + AZD7762; first compound 4 µM)
1 | HCC-827 | 0.925 | 0.747 | 0.492 | 0.275 | 0.237 | 0.428 | 0.433 | 0.453 | 0.387 | 0.408 | 0.479 | 0.38 | 0.499 | 0.44 | 0.469 | 0.687 | 0.556 | 0.374 | 0.195 | 0.151
2 | HOP-62 | 0.553 | 0.238 | 0.171 | 0.111 | 0.0613 | 0.314 | 0.397 | 0.427 | 0.261 | 0.308 | 0.441 | 0.431 | 0.462 | 0.409 | 0.383 | 0.438 | 0.263 | 0.111 | 0.051 | 0.0648
3 | LC-2-ad | 0.382 | 0.276 | 0.184 | 0.13 | 0.105 | 0.43 | 0.472 | 0.428 | 0.458 | 0.419 | 0.503 | 0.561 | 0.419 | 0.466 | 0.47 | 0.376 | 0.9 | 0.837 | 0.376 | 0.236
4 | LCLC-97TM1 | 0.277 | 0.281 | 0.139 | 0.134 | 0.109 | 0.244 | 0.223 | 0.188 | 0.225 | 0.176 | 0.206 | 0.211 | 0.257 | 0.211 | 0.206 | 0.338 | 0.22 | 0.0891 | 0.0605 | 0.0696
5 | LK-2 | 0.86 | 0.639 | 0.411 | 0.195 | 0.225 | 0.209 | 0.212 | 0.175 | 0.183 | 0.189 | 0.619 | 0.824 | 0.796 | 0.789 | 0.658 | 0.329 | 0.307 | 0.309 | 0.124 | 0.155
6 | LOU-NH91 | 0.649 | 0.761 | 0.556 | 0.41 | 0.314 | 0.741 | 0.66 | 0.661 | 0.685 | 0.631 | 0.539 | 0.455 | 0.44 | 0.507 | 0.515 | 0.785 | 0.95 | 0.823 | 0.645 | 0.459
7 | LU99A | 0.46 | 0.267 | 0.243 | 0.158 | 0.166 | 0.259 | 0.268 | 0.26 | 0.198 | 0.21 | 0.468 | 0.392 | 0.39 | 0.424 | 0.314 | 0.28 | 0.214 | 0.185 | 0.154 | 0.114
8 | LXF-289 | 0.848 | 0.664 | 0.524 | 0.174 | 0.113 | 0.162 | 0.149 | 0.218 | 0.176 | 0.181 | 0.629 | 0.59 | 0.635 | 0.563 | 0.583 | 1.06 | 0.775 | 0.691 | 0.113 | 0.0848
9 | NCI-H23 | 0.759 | 0.69 | 0.281 | 0.218 | 0.148 | 0.374 | 0.374 | 0.354 | 0.624 | 0.266 | 0.453 | 0.513 | 0.513 | 0.461 | 0.419 | 0.304 | 0.263 | 0.282 | 0.213 | 0.28
10 | NCI-H322M | 1.3 | 1.22 | 0.844 | 0.338 | 0.382 | 0.501 | 0.51 | 0.49 | 0.472 | 0.499 | 0.496 | 0.476 | 0.472 | 0.45 | 0.507 | 0.688 | 0.643 | 0.64 | 0.317 | 0.39
11 | NCI-H441 | 0.708 | 0.489 | 0.357 | 0.138 | 0.173 | 0.68 | 0.571 | 0.567 | 0.545 | 0.461 | 0.282 | 0.226 | 0.212 | 0.211 | 0.231 | 1.23 | 1.12 | 0.722 | 0.452 | 0.173
12 | NCI-H460 | 1.01 | 1.04 | 0.431 | 0.0395 | 0.024 | 0.419 | 0.33 | 0.574 | 0.352 | 0.103 | 0.232 | 0.147 | 0.127 | 0.0559 | 0.052 | 0.575 | 0.772 | 0.621 | 0.206 | 0.0543
13 | NCI-H647 | 0.976 | 0.424 | 0.159 | 0.0575 | 0.0744 | 0.375 | 0.268 | 0.288 | 0.282 | 0.126 | 0.433 | 0.542 | 0.388 | 0.229 | 0.37 | 0.412 | 0.334 | 0.0972 | 0.0222 | 0.0279
14 | NCI-H727 | 0.303 | 0.255 | 0.269 | 0.231 | 0.19 | 0.633 | 0.648 | 0.586 | 0.676 | 0.438 | 0.732 | 0.668 | 0.726 | 0.573 | 0.591 | 0.574 | 0.432 | 0.402 | 0.372 | 0.242
15 | NCI-H838 | 0.831 | 0.307 | 0.211 | 0.16 | 0.196 | 0.293 | 0.269 | 0.255 | 0.261 | 0.242 | 0.213 | 0.238 | 0.212 | 0.224 | 0.261 | 0.916 | 0.82 | 0.737 | 0.589 | 0.618
